Measurements reported in patent publication US9427415B2, “Methods and compositions for modifying sensorial perception” (The Procter & Gamble Company, priority 2014, dated 2016).
Several values for one entry are separate records, joined by “and”; a condition that tells them apart may be missing. Equal values may be shown once. Where a name gives a salt, the structure may show the parent alone. Read-outs that look alike come from different tables or passages of the source.

Assays:
[1] = test system: TRPA1V1; assay: Intracellular calcium (Fluo-4, FLIPR) activation of TRPA1V1 cells (co-expressing TRPA1 and TRPV1) by GRAS compounds; type: cell-based, human;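 note: HEK293 cells co-expressing TRPA1 and TRPV1, fluorescence read at 488/514 nm after baseline subtraction, recorded every 2 s over 10 min, ionomycin 10 µM and buffer as controls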
[2] = target: T1, human TRPA1 (Homo sapiens, UniProt O75762, K186N/R3C/R58T); assay: Intracellular calcium (Fluo-4, FLIPR) activation of TRPA1 cells by GRAS compounds; type: cell-based; conditions: for activation at 1000 µM / activation at 100 µM: read-out: A1 activation, % of agonist value;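 for all read-outs here: TRPA1-expressing cells, fluorescence read on a FLIPR Tetra (ex 488 nm, em 514 nm) every 2 s for 10 min after compound addition, baseline subtracted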
T1 construct: expressed in transfected cells; pcDNA3 control cells

[3] = Table 1(e), 1 mM, relative to AITC 30 μM
[4] = Table 1(d), 1 mM, relative to AITC 30 μM
[5] = Table 1(c), 1 mM, relative to AITC 30 μM
[6] = Table 1(c), 100 μM (*), relative to AITC 30 μM
[7] = Table 1(d), 100 μM (*), relative to AITC 30 μM

T1 sequence (O75762 whole entry R3C/R58T/K186N): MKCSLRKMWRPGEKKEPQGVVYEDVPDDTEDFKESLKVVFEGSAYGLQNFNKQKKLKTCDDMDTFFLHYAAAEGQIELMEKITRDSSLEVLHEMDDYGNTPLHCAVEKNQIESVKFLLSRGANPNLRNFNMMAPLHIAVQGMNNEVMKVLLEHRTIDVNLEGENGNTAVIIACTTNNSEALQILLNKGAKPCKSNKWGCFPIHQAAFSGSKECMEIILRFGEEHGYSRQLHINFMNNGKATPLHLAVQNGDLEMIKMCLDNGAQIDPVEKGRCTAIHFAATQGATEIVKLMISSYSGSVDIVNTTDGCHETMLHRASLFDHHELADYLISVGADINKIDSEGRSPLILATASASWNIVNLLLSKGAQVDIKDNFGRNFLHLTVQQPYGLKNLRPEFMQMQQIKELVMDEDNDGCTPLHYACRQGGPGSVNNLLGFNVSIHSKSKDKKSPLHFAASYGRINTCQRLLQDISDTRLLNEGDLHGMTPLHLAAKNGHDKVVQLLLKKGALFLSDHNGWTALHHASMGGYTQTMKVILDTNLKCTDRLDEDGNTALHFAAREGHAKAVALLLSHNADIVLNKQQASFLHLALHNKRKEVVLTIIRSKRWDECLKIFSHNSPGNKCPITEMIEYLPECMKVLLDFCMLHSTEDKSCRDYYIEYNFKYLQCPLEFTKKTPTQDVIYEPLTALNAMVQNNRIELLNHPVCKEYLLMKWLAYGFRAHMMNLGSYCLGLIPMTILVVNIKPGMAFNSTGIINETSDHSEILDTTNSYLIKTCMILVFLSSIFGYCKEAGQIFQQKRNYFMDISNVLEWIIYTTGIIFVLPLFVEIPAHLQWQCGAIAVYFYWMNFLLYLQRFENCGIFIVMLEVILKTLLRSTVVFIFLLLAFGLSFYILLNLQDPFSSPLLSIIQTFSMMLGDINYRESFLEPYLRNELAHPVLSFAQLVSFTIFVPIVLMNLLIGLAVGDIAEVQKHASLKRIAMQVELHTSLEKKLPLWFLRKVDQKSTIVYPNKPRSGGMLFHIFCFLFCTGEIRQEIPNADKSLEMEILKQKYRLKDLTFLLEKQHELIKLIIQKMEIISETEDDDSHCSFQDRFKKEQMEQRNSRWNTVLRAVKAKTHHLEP

## CCCCCCCCCC=CC=O [2-Dodecenal]
[1]; [3]
  A1V1 activation, % of agonist value: 82.8%
[2]; [3]
  activation at 1000 µM: 65.5%

## CCC(CC)C(=O)O [2-Ethylbutyric acid]
[1]; [4]
  A1V1 activation, % of agonist value: 34.87%
[2]; [4]
  activation at 1000 µM: 67.7%

## Cc1ccc(CO)o1 [2-Furanmethanol, 5-methyl-]
[1]; [5]
  A1V1 activation, % of agonist value: 76.02%
[2]; [5]
  activation at 1000 µM: 77.3%

## O=C(OCCc1ccccc1)c1ccco1 [2-Furoic acid, phenethyl ester]
[1]; [5]
  A1V1 activation, % of agonist value: 145%
[2]; [5]
  activation at 1000 µM: 155%

## CC(=O)Cc1ccco1 [2-Furylacetone]
[1]; [5]
  A1V1 activation, % of agonist value: 59.5%
[2]; [5]
  activation at 1000 µM: 60.8%

## CCCCCC(=O)c1ccco1 [2-Hexanoylfuran]
[1]; [5]
  A1V1 activation, % of agonist value: 109%
[2]; [5]
  activation at 1000 µM: 118%

## CC=CC(=O)CC [2-Hexen-4-one]
[1]; [4]
  A1V1 activation, % of agonist value: 24.5%
[2]; [4]
  activation at 1000 µM: 53%

## CCCCCCCCCC(C)C=O (stereo not shown) [2-Methylundecanal]
[1]; [6]
  A1V1 activation, % of agonist value: 57.3%
[2]; [6]
  activation at 100 µM: 54.9%

## CCCCCC=CC(=O)O [2-Octenoic acid]
[1]; [5]
  A1V1 activation, % of agonist value: 61.77%
[2]; [5]
  activation at 1000 µM: 55.9%

## CC=C(C=O)c1ccccc1 [2-Phenyl-2-butenal]
[1]
  A1V1 activation, % of agonist value: 82.8%
[2]
  activation at 1000 µM: 65.8%

## CC(C=O)c1ccccc1 (stereo not shown) [2-Phenylpropionaldehyde]
[1]; [5]
  A1V1 activation, % of agonist value: 106.9%
[2]; [5]
  activation at 1000 µM: 105%

## CC(C)C(=O)OCC(C)c1ccccc1 (stereo not shown) [2-Phenylpropyl isobutyrate]
[1]; [3]
  A1V1 activation, % of agonist value: 102.3%
[2]; [3]
  activation at 1000 µM: 67.4%

## CCCCCCCCCCC=CC=O [2-Tridecenal]
[1]; [5]
  A1V1 activation, % of agonist value: 102% and 101%
[1]; [7]
  A1V1 activation, % of agonist value: 43.5%
[2]; [7]
  activation at 100 µM: 76.3%

## CC/C=C\CC/C=C/C=O [2-trans-6-cis-Nonadienal]
[1]; [5]
  A1V1 activation, % of agonist value: 81.22%
[2]; [5]
  A1 activation, % of agonist value: 77.3%

## CC(=O)c1ccc(C)cc1C [2′,4′-Dimethylacetophenone]
[1]; [3]
  A1V1 activation, % of agonist value: 45.30%
[2]; [3]
  activation at 1000 µM: 24.4%

## C=C(C)CCCC(C)CCO (stereo not shown) [3,7-Dimethyl-7-octen-1-ol]
[1]; [4]
  A1V1 activation, % of agonist value: 70.7%
[2]; [4]
  activation at 1000 µM: 93.7%

## OCC(=CCc1ccco1)c1ccccc1 [3-(2-Furfuryl)-2-phenylpropenol]
[1]; [6]
  A1V1 activation, % of agonist value: 72.4%
[2]; [6]
  A1 activation, % of agonist value: 81.3%

## O=CC=Cc1ccco1 [3-(2-Furyl)acrolein]
[1]; [5]
  A1V1 activation, % of agonist value: 66.5%
[2]; [5]
  activation at 1000 µM: 68.4%

## CCCC(CCOC(C)=O)SC(C)=O (stereo not shown) [3-(Acetylmercapto)hexyl acetate]
[1]; [3]
  A1V1 activation, % of agonist value: 52.79%
[2]; [3]
  activation at 1000 µM: 22.3%

## CCCC(CCOC(C)=O)SC (stereo not shown) [3-(Methylthio)hexyl acetate]
[1]; [5]
  A1V1 activation, % of agonist value: 87.6%
[2]; [5]
  activation at 1000 µM: 97.9%

## CSCCC=O [3-(Methylthio)propionaldehyde]
[1]; [4]
  A1V1 activation, % of agonist value: 32.4%
[2]; [4]
  activation at 1000 µM: 53.8%

## CC(=O)c1cc(C)oc1C [3-Acetyl-2,5-dimethylfuran]
[1]; [5]
  A1V1 activation, % of agonist value: 61%
[2]; [5]
  activation at 1000 µM: 73.5%

## C=CCCN=C=S [3-Butenyl isothiocyanate]
[1]; [5]
  A1V1 activation, % of agonist value: 85.8%
[2]; [5]
  activation at 1000 µM: 99.4%

## CCCC=C1OC(=O)c2ccccc21 [3-Butylidenephthalide]
[1]; [5]
  A1V1 activation, % of agonist value: 115.4%
[2]; [5]
  activation at 1000 µM: 119%

## CCCC=CC(C)=O [3-Hepten-2-one]
[1]; [4]
  A1V1 activation, % of agonist value: 59%
[2]; [4]
  activation at 1000 µM: 82%

## CC1=CC(=O)CCC1 [3-Methyl-2-cyclohexen-1-one]
[1]; [5]
  A1V1 activation, % of agonist value: 94.76%
[2]; [5]
  activation at 1000 µM: 94.5%

## CC(C)CCN=C=S [3-Methylbutyl isothiocyanate]
[1]; [3]
  A1V1 activation, % of agonist value: 111.2%
[2]; [3]
  activation at 1000 µM: 61.1%

## CC=CC(C)=O [3-Penten-2-one]
[1]; [4]
  A1V1 activation, % of agonist value: 35%
[2]; [4]
  activation at 1000 µM: 64.2%

## CC1=NC(CC(C)C)SC1C (stereo not shown) [3-Thiazoline, 4,5-dimethyl-2-isobutyl-]
[1]; [5]
  A1V1 activation, % of agonist value: 138.7%
[2]; [5]
  activation at 1000 µM: 142%

## CCOc1ccc(C=O)cc1 [4-Ethoxybenzaldehyde]
[1]; [3]
  A1V1 activation, % of agonist value: 103%
[2]; [3]
  activation at 1000 µM: 62%

## COc1ccc(CCC(C)=O)cc1 [4-Methoxybenzylacetone]
[1]; [5]
  A1V1 activation, % of agonist value: 71.16%
[2]; [5]
  activation at 1000 µM: 62.3%

## CC(=O)OCc1ccc(C)cc1 [4-Methylbenzyl acetate]
[1]; [3]
  A1V1 activation, % of agonist value: 88.05%
[2]; [3]
  activation at 1000 µM: 58.9%

## C=CCCC=O [4-Pentenal]
[1]; [5]
  A1V1 activation, % of agonist value: 84.24%
[2]; [5]
  activation at 1000 µM: 75.4%

## CC(C)CC=C(C=O)c1ccccc1 [5-Methy1-2-pheny1-2-hexenal]
[1]; [3]
  A1V1 activation, % of agonist value: 89.8%
[2]; [3]
  A1 activation, % of agonist value: 60.5%

## COc1ccc2ncccc2c1 [6-Methoxyquinoline]
[1]; [3]
  A1V1 activation, % of agonist value: 130.5%
[2]; [3]
  activation at 1000 µM: 57.8%

## C=CCCCCCCCCC=O [10-Undecenal]
[1]; [4]
  A1V1 activation, % of agonist value: 28%
[2]; [4]
  activation at 1000 µM: 61.8%

## CCCCCCCC/C=C/C=O [(2E)-Undecenal]
[1]; [5]
  A1V1 activation, % of agonist value: 48.8%
[2]; [5]
  A1 activation, % of agonist value: 59.6%

## CCCC/C=C/C=O [(E)-2-Heptenal]
[1]; [5]
  A1V1 activation, % of agonist value: 96.6%
[2]; [5]
  activation at 1000 µM: 112%

## CCCCC/C=C/C=C/C=O [(E,E)-2,4-Decadienal]
[1]; [4]
  A1V1 activation, % of agonist value: 46%
[2]; [4]
  activation at 1000 µM: 142%

## CCCCCCC/C=C/C=C/C=O [(E,E)-2,4-Dodecadienal]
[1]; [4]
  A1V1 activation, % of agonist value: 55.4%
[2]; [4]
  activation at 1000 µM: 159%

## C/C=C/C=C/C=O [(E,E)-2,4-Hexadienal]
[1]; [5]
  A1V1 activation, % of agonist value: 108.71%
[2]; [5]
  activation at 1000 µM: 92%

## CC/C=C/CC/C=C/C=O [(E,E)-2,6-Nonadienal]
[1]; [5]
  A1V1 activation, % of agonist value: 89.61%
[2]; [5]
  activation at 1000 µM: 87.1%

## CC/C=C/C=C/CO [(E,E)-Hepta-2,4-dien-1-ol]
[1]; [5]
  A1V1 activation, % of agonist value: 133.3%
[2]; [5]
  activation at 1000 µM: 146%

## CC(C)=CCC[C@](C)(O)[C@@H]1CC=C(C)CC1 [(−)-Alpha-Bisabolol]
[1]; [5]
  A1V1 activation, % of agonist value: 83.53%
[2]; [5]
  A1 activation, % of agonist value: 71.26%

## CCCOC(C)OCCc1ccccc1 (stereo not shown) [Acetaldehyde, phenethyl propyl acetal]
[1]; [4]
  A1V1 activation, % of agonist value: 62.2%
[2]; [4]
  A1 activation, % of agonist value: 86.4%

## C=CCOC(=O)c1ccccc1N [Allyl anthranilate]
[1]; [5]
  A1V1 activation, % of agonist value: 75.03%
[2]; [5]
  activation at 1000 µM: 73.8%

## C=CCOC(=O)Cc1ccccc1 [Allyl phenylacetate]
[1]; [5]
  A1V1 activation, % of agonist value: 84.14%
[2]; [5]
  activation at 1000 µM: 86.2%

## C=CCCC(=O)/C=C/C1C(C)=CCCC1(C)C (stereo not drawn) [Allyl-alpha-ionone]
[1]; [3]
  A1V1 activation, % of agonist value: 89.7%
[2]; [3]
  A1 activation, % of agonist value: 52.6%

## COc1ccc(C=C(C)C=O)cc1 [Alpha Methyl-4-methoxycinnamaldehyde]
[1]; [3]
  A1V1 activation, % of agonist value: 85.80%
[2]; [3]
  activation at 1000 µM: 67.1%

## CC(C)CC(O)Cc1ccccc1 (stereo not drawn) [Alpha-Isobutylphenethyl alcohol]
[1]; [5]
  A1V1 activation, % of agonist value: 58.62%
[2]; [5]
  activation at 1000 µM: 73%

## CCCCCOC(=O)c1ccco1 [Amyl furoate]
[1]; [5]
  A1V1 activation, % of agonist value: 87.70%
[2]; [5]
  A1 activation, % of agonist value: 81.09%

## COc1ccc(COC=O)cc1 [Anisyl formate]
[1]; [5]
  A1V1 activation, % of agonist value: 78.2%
[2]; [5]
  A1 activation, % of agonist value: 89.5%

## OCc1ccccc1 [Benzenemethanol]
[1]; [5]
  A1V1 activation, % of agonist value: 78.47%
[2]; [5]
  activation at 1000 µM: 79.6%

## O=C(c1ccccc1)C(O)c1ccccc1 (stereo not shown) [Benzoin]
[1]; [3]
  A1V1 activation, % of agonist value: 61.81%
[2]; [3]
  activation at 1000 µM: 26.2%

## O=C(Nc1ccccc1C(=O)O)c1ccccc1 [Benzoylanthranilic acid]
[1]; [5]
  A1V1 activation, % of agonist value: 125.6%
[2]; [5]
  A1 activation, % of agonist value: 145.9%

## Cc1ccc(C(C)O)cc1 (stereo not drawn) [Benzyl alcohol, p,alpha-dimethyl-]
[1]; [5]
  A1V1 activation, % of agonist value: 71.8%
[2]; [5]
  A1 activation, % of agonist value: 77.2%

## CCCC(=O)OCc1ccccc1 [Benzyl butyrate]
[1]; [5]
  A1V1 activation, % of agonist value: 64.7%
[2]; [5]
  activation at 1000 µM: 70%
